The source of these data is paper PMC9127186, “Molecular Basis Underlying Hepatobiliary and Renal Excretion of Phenolic Acids of Salvia miltiorrhiza Roots (Danshen)” (Frontiers in Pharmacology, 2022).

The target in data set [1] is T1, rat Oct1 (Rattus norvegicus, UniProt Q63089).
T1 sequence (Q63089 1-556): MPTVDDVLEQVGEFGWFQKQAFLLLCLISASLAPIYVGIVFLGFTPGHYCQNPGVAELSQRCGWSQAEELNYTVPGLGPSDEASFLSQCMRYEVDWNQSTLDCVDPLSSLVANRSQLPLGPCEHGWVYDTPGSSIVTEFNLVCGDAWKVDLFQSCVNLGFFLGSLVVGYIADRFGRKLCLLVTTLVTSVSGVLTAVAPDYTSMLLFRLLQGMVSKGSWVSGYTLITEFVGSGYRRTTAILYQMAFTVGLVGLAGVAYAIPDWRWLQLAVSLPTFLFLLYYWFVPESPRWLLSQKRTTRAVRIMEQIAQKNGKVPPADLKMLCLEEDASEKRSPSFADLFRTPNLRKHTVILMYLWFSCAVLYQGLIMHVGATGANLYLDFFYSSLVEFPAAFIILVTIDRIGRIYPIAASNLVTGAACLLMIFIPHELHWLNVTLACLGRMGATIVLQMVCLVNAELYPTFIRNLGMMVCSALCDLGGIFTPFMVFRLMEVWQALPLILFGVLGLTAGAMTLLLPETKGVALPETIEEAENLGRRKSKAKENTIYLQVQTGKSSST
As to conditions: 10 min, 100 μM.

The target of data set [2] is T2, human OATP2B1 (Homo sapiens, UniProt O94956).
T2 sequence (O94956 1-709): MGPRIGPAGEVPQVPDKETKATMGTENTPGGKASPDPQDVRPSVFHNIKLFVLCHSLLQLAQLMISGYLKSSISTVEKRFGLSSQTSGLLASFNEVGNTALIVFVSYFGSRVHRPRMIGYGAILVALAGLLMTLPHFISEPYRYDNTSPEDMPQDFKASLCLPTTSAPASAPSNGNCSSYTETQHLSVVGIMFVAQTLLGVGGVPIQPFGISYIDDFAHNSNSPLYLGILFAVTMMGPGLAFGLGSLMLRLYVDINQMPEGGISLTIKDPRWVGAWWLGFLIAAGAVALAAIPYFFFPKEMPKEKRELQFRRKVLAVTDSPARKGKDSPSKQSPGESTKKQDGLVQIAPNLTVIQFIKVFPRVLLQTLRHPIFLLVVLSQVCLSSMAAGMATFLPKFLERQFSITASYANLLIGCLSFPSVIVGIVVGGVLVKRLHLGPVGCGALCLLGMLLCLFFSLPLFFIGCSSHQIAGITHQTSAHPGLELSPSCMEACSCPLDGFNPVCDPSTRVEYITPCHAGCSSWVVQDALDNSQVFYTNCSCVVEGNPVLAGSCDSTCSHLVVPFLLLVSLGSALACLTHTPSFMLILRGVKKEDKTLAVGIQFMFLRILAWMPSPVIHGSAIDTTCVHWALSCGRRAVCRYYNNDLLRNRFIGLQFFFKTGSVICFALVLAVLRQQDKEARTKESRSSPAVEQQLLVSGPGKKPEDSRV
The following applies: 10 min, 100 μM.

Data set [3] concerns the target T3, rat Oct3 (Rattus norvegicus, UniProt O88446).
T3 sequence (O88446 1-551): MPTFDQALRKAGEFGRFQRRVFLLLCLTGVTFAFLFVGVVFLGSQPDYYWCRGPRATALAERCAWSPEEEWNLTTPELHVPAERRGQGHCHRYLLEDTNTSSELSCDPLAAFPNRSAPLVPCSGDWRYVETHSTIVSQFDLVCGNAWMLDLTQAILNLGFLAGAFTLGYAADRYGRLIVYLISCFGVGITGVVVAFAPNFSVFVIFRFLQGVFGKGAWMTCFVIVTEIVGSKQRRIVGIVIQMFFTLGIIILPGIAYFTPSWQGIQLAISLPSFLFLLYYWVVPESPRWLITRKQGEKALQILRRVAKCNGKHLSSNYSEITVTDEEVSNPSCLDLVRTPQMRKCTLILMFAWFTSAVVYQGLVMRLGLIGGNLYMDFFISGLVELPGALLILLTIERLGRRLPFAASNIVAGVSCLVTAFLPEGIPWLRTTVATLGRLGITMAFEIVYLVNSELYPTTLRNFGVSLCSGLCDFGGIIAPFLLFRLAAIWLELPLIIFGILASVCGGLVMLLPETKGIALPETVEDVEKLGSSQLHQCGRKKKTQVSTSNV

Data set [4] concerns the target T4, human OATP1B1 (Homo sapiens, UniProt Q9Y6L6).
T4 sequence (Q9Y6L6 1-691): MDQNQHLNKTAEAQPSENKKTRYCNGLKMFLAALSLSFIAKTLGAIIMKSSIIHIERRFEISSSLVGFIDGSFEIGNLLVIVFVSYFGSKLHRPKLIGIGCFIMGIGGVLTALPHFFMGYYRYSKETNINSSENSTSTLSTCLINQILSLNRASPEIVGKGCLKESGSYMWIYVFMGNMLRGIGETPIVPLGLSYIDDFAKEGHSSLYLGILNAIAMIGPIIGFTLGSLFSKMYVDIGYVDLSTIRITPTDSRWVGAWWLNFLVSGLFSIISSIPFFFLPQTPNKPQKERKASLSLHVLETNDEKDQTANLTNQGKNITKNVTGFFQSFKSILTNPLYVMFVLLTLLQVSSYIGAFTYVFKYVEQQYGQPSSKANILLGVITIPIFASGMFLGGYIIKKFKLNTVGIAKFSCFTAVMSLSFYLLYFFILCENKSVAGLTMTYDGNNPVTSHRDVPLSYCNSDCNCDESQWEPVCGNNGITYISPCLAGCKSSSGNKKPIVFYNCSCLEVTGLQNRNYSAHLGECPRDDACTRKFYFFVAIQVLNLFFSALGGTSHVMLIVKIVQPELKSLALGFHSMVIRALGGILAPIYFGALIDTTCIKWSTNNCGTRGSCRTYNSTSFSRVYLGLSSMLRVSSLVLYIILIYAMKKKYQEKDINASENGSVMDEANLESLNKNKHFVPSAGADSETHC
Also noted: method as in Cao et al. (2019). As to conditions: ref Cao et al. (2019); cited from earlier work.

The subject of data set [5] is OATP1B1. Details: method as in Li et al., 2019. As to conditions: ref Li et al., 2019; read-out: half maximum inhibitory concentration (IC50) for OATP1B1; cited from earlier work.

With `O=C(/C=C/c1ccc(O)c(O)c1)O[C@H](Cc1ccc(O)c(O)c1)C(=O)O` [Rosmarinic acid, rosmarinic acid], the “TransportTC/TransportMC ratio (net transport ratio)” value in data set [1] came out at 1.56 ± 0.13; in data set [2], 1.69 ± 0.71.

On to `O=C(/C=C/c1ccc(O)c(O)c1/C=C/c1ccc(O)c(O)c1)O[C@H](Cc1ccc(O)c(O)c1)C(=O)O` [Salvianolic acid A, salvianolic acid A], for which the “TransportTC/TransportMC ratio (net transport ratio)” value in data set [3] was found to be 1.19 ± 0.14; in data set [1], 1.13 ± 0.19; in data set [2], 2.45 ± 0.34.

Regarding salvianolic acid B, the “substrate of human OATP1B1” value in data set [4] is on record as “substrate”. Further, the IC50 in data set [5] is 38 µM.
